Earlier results in paper PMC6262012, “IMB-T130 targets 3-dehydroquinate synthase and inhibits Mycobacterium tuberculosis” (Scientific Reports, 2018).

Test system: M. tuberculosis
Conditions: drug-resistant strains, compared with RFP and INH; cited from earlier work

O=C(Nc1nc(-c2ccccn2)cs1)c1ccc(Cl)s1 [IMB-T130, 5-chloro-N-[4-(pyridin-2-yl)-1,3-thiazol-2-yl] thiophene-2-carboxamide]
MIC against drug-resistant strains: substantially lower MIC
